Values of other authors in patent US7135196B2, “Iron compositions” (Vitra Pharmaceuticals Limited, priority 2000, dated 2006).

SMILES: O=C([O-])/C=C/C(=O)[O-].[Fe+2] [fumarate, ferrous fumarate]
- solubility in water: poorly and slowly soluble
